Measurements: patent US11498899B2, “Nitrone herbicides” (FMC Corporation, priority 2016, dated 2022)

Experiments:
[1] = test system: barnyardgrass (Echinochloa crus-galli); assay: Test A preemergence, visual injury rating 0-100 (0 no effect, 100 complete control); type: in vivo; settings: for Barnyardgrass plant response rating (0 to 100 scale): 125 g ai/ha; for Barnyardgrass plant response rating: 500 g ai/ha, 0 to 100 scale
From the text: (§1) Seeds of plant species selected from barnyardgrass (Echinochloa crus-galli), kochia (Kochia scoparia), ragweed (common ragweed, Ambrosia elatior), ryegrass, Italian (Italian ryegrass, Lolium multiflorum), foxtail, giant (giant foxtail, Setaria faberii), foxtail, green (green foxtail, Setaria viridis), and pigweed (Amaranthus retroflexus) were planted into a blend of loam soil and sand and treated preemergence with a directed soil spray using test chemicals formulated in a non-phytotoxic solvent mixture which included a surfactant.
(§2) At the same time, plants selected from these weed species and also wheat (Triticum aestivum), corn (Zea mays), blackgrass (Alopecurus myosuroides), and galium (catchweed bedstraw, Galium aparine) were planted in pots containing the same blend of loam soil and sand and treated with postemergence applications of test chemicals formulated in the same manner. Plants ranged in height from 2 to 10 cm and were in the one- to two-leaf stage for the postemergence treatment. Treated plants and untreated controls were maintained in a greenhouse for approximately 10 days, after which time all treated plants were compared to untreated controls and visually evaluated for injury. […] A dash (-) response means no test result.

[2] = test system: foxtail, giant (giant foxtail, Setaria faberii); assay: Test A preemergence, visual injury rating 0-100; type: in vivo; settings: for Foxtail, Giant plant response rating (0 to 100 scale): 125 g ai/ha; for Foxtail, Giant plant response rating: 500 g ai/ha, 0 to 100 scale
From the text: as §1, §2

kochia (Kochia scoparia) [3] = assay: Test A preemergence, visual injury rating 0-100; type: in vivo; settings: for Kochia plant response rating (0 to 100 scale): 125 g ai/ha; for Kochia plant response rating: 500 g ai/ha, 0 to 100 scale
From the text: as §1, §2

[4] = test system: pigweed (Amaranthus retroflexus); assay: Test A preemergence, visual injury rating 0-100; type: in vivo; settings: for Pigweed plant response rating (0 to 100 scale): 125 g ai/ha; for Pigweed plant response rating: 500 g ai/ha, 0 to 100 scale
From the text: as §1, §2

[5] = test system: ragweed (common ragweed, Ambrosia elatior); assay: Test A preemergence, visual injury rating 0-100; type: in vivo; settings: for Ragweed plant response rating (0 to 100 scale): 125 g ai/ha; for Ragweed plant response rating: 500 g ai/ha, 0 to 100 scale
From the text: as §1, §2

[6] = test system: ryegrass, Italian (Italian ryegrass, Lolium multiflorum); assay: Test A preemergence, visual injury rating 0-100; type: in vivo; settings: for Ryegrass, Italian plant response rating (0 to 100 scale): 125 g ai/ha; for Ryegrass, Italian plant response rating: 500 g ai/ha, 0 to 100 scale
From the text: as §1, §2

[7] = test system: barnyardgrass (Echinochloa crus-galli); assay: Test A postemergence, visual injury rating 0-100; type: in vivo; settings: 0 to 100 scale
From the text: as §1, §2

[8] = test system: blackgrass (Alopecurus myosuroides); assay: Test A postemergence, visual injury rating 0-100; type: in vivo; settings: 0 to 100 scale
From the text: as §1, §2

corn (Zea mays) = assay: Test A postemergence, visual injury rating 0-100; type: in vivo; settings: 0 to 100 scale
From the text: as §1, §2

[9] = test system: foxtail, giant (giant foxtail, Setaria faberii); assay: Test A postemergence, visual injury rating 0-100; type: in vivo; settings: 0 to 100 scale
From the text: as §1, §2

[10] = test system: galium (catchweed bedstraw, Galium aparine); assay: Test A postemergence, visual injury rating 0-100; type: in vivo; settings: 0 to 100 scale
From the text: as §1, §2

kochia (Kochia scoparia) [11] = assay: Test A postemergence, visual injury rating 0-100; type: in vivo; settings: 0 to 100 scale
From the text: as §1, §2

[12] = test system: pigweed (Amaranthus retroflexus); assay: Test A postemergence, visual injury rating 0-100; type: in vivo; settings: 0 to 100 scale
From the text: as §1, §2

[13] = test system: ragweed (common ragweed, Ambrosia elatior); assay: Test A postemergence, visual injury rating 0-100; type: in vivo; settings: 0 to 100 scale
From the text: as §1, §2

[14] = test system: ryegrass, Italian (Italian ryegrass, Lolium multiflorum); assay: Test A postemergence, visual injury rating 0-100; type: in vivo; settings: 0 to 100 scale
From the text: as §1, §2

[15] = test system: wheat (Triticum aestivum); assay: Test A postemergence, visual injury rating 0-100; type: in vivo; settings: 0 to 100 scale
From the text: as §1, §2

[16] = test system: ducksalad (Heteranthera limosa); assay: Test B flooded paddy test, visual rating 0-100; settings: Flood, 250 g ai/ha, applied to paddy water, rated after 13 to 15 days
[17] = test system: barnyardgrass (Echinochloa crus-galli); assay: Test B flooded paddy test, visual rating 0-100; settings: Flood, 250 g ai/ha, applied to paddy water, rated after 13 to 15 days
rice (Oryza sativa) = assay: Test B flooded paddy test, visual rating 0-100 (0 no effect, 100 complete control); settings: Flood, 250 g ai/ha, applied to paddy water, rated after 13 to 15 days

Structure (SMILES)	Barnyardgrass plant response rating (0 to 100 scale) [1]	Barnyardgrass plant response rating [1]	Foxtail, Giant plant response rating (0 to 100 scale) [2]	Foxtail, Giant plant response rating [2]	Kochia plant response rating (0 to 100 scale) (kochia (Kochia scoparia) [3])	Kochia plant response rating (kochia (Kochia scoparia) [3])	Pigweed plant response rating (0 to 100 scale) [4]	Pigweed plant response rating [4]	Ragweed plant response rating (0 to 100 scale) [5]	Ragweed plant response rating [5]	Ryegrass, Italian plant response rating (0 to 100 scale) [6]	Ryegrass, Italian plant response rating [6]	Barnyardgrass plant response rating ([7]; 125 g ai/ha)	Barnyardgrass plant response rating ([7]; 500 g ai/ha)	Blackgrass plant response rating ([8]; 125 g ai/ha)	Blackgrass plant response rating ([8]; 500 g ai/ha)	Corn plant response rating (corn (Zea mays); 125 g ai/ha)	Corn plant response rating (corn (Zea mays); 500 g ai/ha)	Foxtail, Giant plant response rating ([9]; 125 g ai/ha)	Foxtail, Giant plant response rating ([9]; 500 g ai/ha)	further results
CC1=[N+]([O-])C(C)(C(=O)Nc2cccc(F)c2F)C(c2ccc(C(F)(F)F)cc2)C1 (racemic) [Compound 1]	90	100	100	100	70	90	20	80	0	30	0	60	70	90	20	70	0	70	0	80	Galium plant response rating ([10]; 125 g ai/ha): 80; Galium plant response rating ([10]; 500 g ai/ha): 80; Kochia plant response rating (kochia (Kochia scoparia) [11]; 125 g ai/ha): 0; Kochia plant response rating (kochia (Kochia scoparia) [11]; 500 g ai/ha): 70; Pigweed plant response rating ([12]; 125 g ai/ha): 20; Pigweed plant response rating ([12]; 500 g ai/ha): 60; Ragweed plant response rating ([13]; 125 g ai/ha): 0; Ragweed plant response rating ([13]; 500 g ai/ha): 30; Ryegrass, Italian plant response rating ([14]; 125 g ai/ha): 0; Ryegrass, Italian plant response rating ([14]; 500 g ai/ha): 20; Wheat plant response rating ([15]; 125 g ai/ha): 30; Wheat plant response rating ([15]; 500 g ai/ha): 70; Ducksalad plant response rating (0 to 100 scale) [16]: 70; Barnyardgrass plant response rating (0 to 100 scale) [17]: 70; Rice plant response rating (0 to 100 scale) (rice (Oryza sativa)): 50
CC1=[N+]([O-])C(C(=O)Nc2cccc(F)c2F)C(c2cccc(Cl)c2)C1 (racemic) [Compound 3]	100	100	100	100	30	90	20	70	30	70	20	50	80	90	30	80	40	90	80	90	Galium plant response rating ([10]; 125 g ai/ha): 60; Galium plant response rating ([10]; 500 g ai/ha): 70; Kochia plant response rating (kochia (Kochia scoparia) [11]; 125 g ai/ha): 20; Kochia plant response rating (kochia (Kochia scoparia) [11]; 500 g ai/ha): 60; Pigweed plant response rating ([12]; 125 g ai/ha): 0; Pigweed plant response rating ([12]; 500 g ai/ha): 20; Ragweed plant response rating ([13]; 500 g ai/ha): 50; Ryegrass, Italian plant response rating ([14]; 125 g ai/ha): 0; Ryegrass, Italian plant response rating ([14]; 500 g ai/ha): 70; Wheat plant response rating ([15]; 125 g ai/ha): 30; Wheat plant response rating ([15]; 500 g ai/ha): 80; Ducksalad plant response rating (0 to 100 scale) [16]: 100; Barnyardgrass plant response rating (0 to 100 scale) [17]: 80; Rice plant response rating (0 to 100 scale) (rice (Oryza sativa)): 0
CC1=[N+]([O-])C(C(=O)Nc2cccc(F)c2F)C(c2ccc3c(c2)OCO3)C1 (racemic) [Compound 4]	100	100	100	100	0	80	20	90	0	100	0	20	50	90	0	20	0	60	40	90	Galium plant response rating ([10]; 125 g ai/ha): 30; Galium plant response rating ([10]; 500 g ai/ha): 60; Kochia plant response rating (kochia (Kochia scoparia) [11]; 125 g ai/ha): 0; Kochia plant response rating (kochia (Kochia scoparia) [11]; 500 g ai/ha): 50; Pigweed plant response rating ([12]; 125 g ai/ha): 0; Pigweed plant response rating ([12]; 500 g ai/ha): 20; Ragweed plant response rating ([13]; 125 g ai/ha): 0; Ragweed plant response rating ([13]; 500 g ai/ha): 50; Ryegrass, Italian plant response rating ([14]; 125 g ai/ha): 0; Ryegrass, Italian plant response rating ([14]; 500 g ai/ha): 40; Wheat plant response rating ([15]; 125 g ai/ha): 0; Wheat plant response rating ([15]; 500 g ai/ha): 60; Ducksalad plant response rating (0 to 100 scale) [16]: 40; Barnyardgrass plant response rating (0 to 100 scale) [17]: 60; Rice plant response rating (0 to 100 scale) (rice (Oryza sativa)): 10
CC1=[N+]([O-])C(C(=O)Nc2cccc(F)c2F)C(c2cccc(F)c2)C1 (racemic) [Compound 8]	90	90	90	90	0	50	20	40	0	80	0	40	50	90	0	30	0	0	90	90	Galium plant response rating ([10]; 125 g ai/ha): 20; Galium plant response rating ([10]; 500 g ai/ha): 60; Kochia plant response rating (kochia (Kochia scoparia) [11]; 125 g ai/ha): 0; Kochia plant response rating (kochia (Kochia scoparia) [11]; 500 g ai/ha): 40; Pigweed plant response rating ([12]; 125 g ai/ha): 0; Pigweed plant response rating ([12]; 500 g ai/ha): 20; Ragweed plant response rating ([13]; 125 g ai/ha): 0; Ragweed plant response rating ([13]; 500 g ai/ha): 0; Ryegrass, Italian plant response rating ([14]; 125 g ai/ha): 0; Ryegrass, Italian plant response rating ([14]; 500 g ai/ha): 50; Wheat plant response rating ([15]; 125 g ai/ha): 0; Wheat plant response rating ([15]; 500 g ai/ha): 50; Ducksalad plant response rating (0 to 100 scale) [16]: 100; Barnyardgrass plant response rating (0 to 100 scale) [17]: 85; Rice plant response rating (0 to 100 scale) (rice (Oryza sativa)): 0
